Measurements reported in PMC9437035, “Decoding the olfactory map through targeted transcriptomics links murine olfactory receptors to glomeruli” (Nature Communications, 2022).

Columns and labels:
Olfr1377 [1] = molecular target: T1, Olfr1377 (Mus musculus, UniProt B2RQ46); experiment: in vivo two-photon GCaMP6s imaging of the receptor-tagged glomerulus; parameters: native receptor in mKate2-labelled olfactory sensory neurons (IRES-mKate2 after the CDS, receptor unaltered); conditions: agonist; inhaled odorant on the order of 10^0 nM, anesthetized mice
T1 sequence (B2RQ46 1-307): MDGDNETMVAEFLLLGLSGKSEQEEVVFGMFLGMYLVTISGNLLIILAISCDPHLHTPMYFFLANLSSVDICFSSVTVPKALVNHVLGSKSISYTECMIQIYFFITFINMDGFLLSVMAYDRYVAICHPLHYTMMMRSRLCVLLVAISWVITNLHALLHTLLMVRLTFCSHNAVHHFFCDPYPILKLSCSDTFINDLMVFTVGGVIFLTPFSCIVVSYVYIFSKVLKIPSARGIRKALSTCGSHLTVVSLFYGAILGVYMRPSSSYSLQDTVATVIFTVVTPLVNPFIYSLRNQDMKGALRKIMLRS

Olfr1377 [2] = molecular target: T1, Olfr1377; experiment: CRE-luciferase reporter assay in Hana3A cells; type: cell-based; parameters: expressed from plasmid in Hana3A cells with RTP1S and M3R
Olfr1377 [3] = molecular target: T1, Olfr1377; experiment: in vivo two-photon GCaMP6s imaging of the receptor-tagged glomerulus; parameters: native receptor in mKate2-labelled olfactory sensory neurons (IRES-mKate2 after the CDS, receptor unaltered); conditions: agonist; estimated delivered odorant concentration (olfactometer), anesthetized mice
Olfr881 = molecular target: T2, Olfr881 (Mus musculus, UniProt Q8VF63); experiment: in vivo two-photon GCaMP6s imaging of the receptor-tagged glomerulus; pS6-IP RNA-Seq; conditions: agonist; inhaled odorant, anesthetized mice (imaging)
T2 construct: gene Or8b35; native receptor in mKate2-labelled olfactory sensory neurons (IRES-mKate2 after the CDS, receptor unaltered)
T2 sequence (Q8VF63 1-314): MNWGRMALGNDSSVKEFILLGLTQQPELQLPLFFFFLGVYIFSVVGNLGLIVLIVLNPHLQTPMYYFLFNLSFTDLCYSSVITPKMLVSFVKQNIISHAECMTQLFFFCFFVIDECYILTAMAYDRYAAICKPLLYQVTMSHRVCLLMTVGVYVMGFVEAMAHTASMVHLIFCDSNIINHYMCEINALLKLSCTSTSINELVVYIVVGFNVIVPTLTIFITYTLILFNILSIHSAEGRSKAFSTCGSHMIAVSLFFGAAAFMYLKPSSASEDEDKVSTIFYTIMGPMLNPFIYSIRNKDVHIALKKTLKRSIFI

SMILES	EC50 (Olfr1377 [2]) [µM]	glomerular response to odorant (Olfr1377 [1])	also measured
CC(=O)C=C(C)C [4-methyl-3-penten-2-one]		Olfr1377 showed strong responses to p-anisaldehyde, acetophenone, and the aliphatic ketone 4-methyl-3-penten-2-one	
COc1ccc(C=O)cc1 [p-anisaldehyde]		Olfr1377 showed strong responses to p-anisaldehyde, acetophenone, and the aliphatic ketone 4-methyl-3-penten-2-one	
CC(=O)c1ccccc1O [2′-hydroxyacetophenone]	300		

The next lines start with results.

EC50 (Olfr1377 [2]) [µM]	SMILES	glomerular response to odorant (Olfr1377 [1])	also measured
0.008	COc1ccc(C(C)=O)cc1 [4-methoxyacetophenone]		in vivo response threshold (Olfr1377 [3]): ~ 10^−13 M
10.1	CC(=O)c1ccccc1 [acetophenone]		
1	CC(=O)c1ccc(C)cc1 [4-methylacetophenone]		in vivo two-photon GCaMP6s imaging of the receptor-tagged glomerulus; pS6-IP RNA (Olfr881): both Olfr1377 and Olfr881 exhibited robust responses to low concentrations of 4-methylacetophenone
